In patent US7528138B2, “Pyrazolo[1,5-a]pyrimidines useful as inhibitors of protein kinases” (Vertex Pharmaceuticals Incorporated, priority 2004, dated 2009):

Tests used:
[1] = target: T1, Itk (Homo sapiens, UniProt Q08881); assay: ITK Inhibition Assay (Radiometric), radioactive-phosphate incorporation; assay type: biochemical; conditions: enzyme inhibition data (Ki), Table 11; radiometric or UV assay not stated
T1 sequence (Q08881 1-620): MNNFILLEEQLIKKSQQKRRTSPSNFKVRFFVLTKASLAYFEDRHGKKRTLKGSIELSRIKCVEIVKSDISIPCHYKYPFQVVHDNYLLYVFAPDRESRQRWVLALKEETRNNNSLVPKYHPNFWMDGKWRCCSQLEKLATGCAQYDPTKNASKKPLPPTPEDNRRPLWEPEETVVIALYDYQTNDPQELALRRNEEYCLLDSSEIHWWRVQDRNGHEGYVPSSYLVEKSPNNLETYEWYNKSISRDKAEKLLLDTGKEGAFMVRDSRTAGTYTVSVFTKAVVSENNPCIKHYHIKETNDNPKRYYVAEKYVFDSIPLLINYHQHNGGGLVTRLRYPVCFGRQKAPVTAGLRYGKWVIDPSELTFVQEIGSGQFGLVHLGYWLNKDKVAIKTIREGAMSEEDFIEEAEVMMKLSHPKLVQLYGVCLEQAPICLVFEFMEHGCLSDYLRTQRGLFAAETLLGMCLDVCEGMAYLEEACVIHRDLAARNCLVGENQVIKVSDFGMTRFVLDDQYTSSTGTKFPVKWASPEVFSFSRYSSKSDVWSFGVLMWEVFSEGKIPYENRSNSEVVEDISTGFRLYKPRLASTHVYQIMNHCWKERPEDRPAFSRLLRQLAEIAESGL
In short: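 Radiometric 33P incorporation into SAM68 peptide (D332-443) with filter capture and scintillation counting; 10 min pre-incubation then 10 min reaction at 25° C. IC50 format: 30 nM Itk, 15 μM ATP, 2 μM peptide, HEPES pH 7.5. Ki(app) format: 50 nM Itk, 7.5 μM ATP, 3 μM peptide, MOPS pH 7.0.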

[2] = target: T2, Aurora-2 (Homo sapiens, UniProt O14965); assay: Aurora-A (Aurora-2) Inhibition Assay, coupled enzyme assay; assay type: biochemical; conditions: enzyme inhibition data (Ki), Table 11; read-out: AurA Ki
T2 sequence (O14965 1-403): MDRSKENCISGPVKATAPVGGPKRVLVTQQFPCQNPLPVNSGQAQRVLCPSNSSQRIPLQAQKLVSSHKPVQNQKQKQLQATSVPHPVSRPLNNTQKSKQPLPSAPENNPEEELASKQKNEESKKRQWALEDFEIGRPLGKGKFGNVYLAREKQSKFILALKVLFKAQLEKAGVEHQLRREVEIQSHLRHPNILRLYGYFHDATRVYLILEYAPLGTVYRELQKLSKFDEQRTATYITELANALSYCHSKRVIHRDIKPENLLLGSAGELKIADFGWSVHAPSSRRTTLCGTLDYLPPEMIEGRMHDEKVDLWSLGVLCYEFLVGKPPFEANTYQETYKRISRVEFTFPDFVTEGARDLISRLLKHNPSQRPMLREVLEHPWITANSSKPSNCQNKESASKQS
In short: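 Coupled pyruvate kinase/lactate dehydrogenase assay following NADH, pH 7.5 Hepes, 40 nM Aurora-2, 400 μM ATP and 570 μM Kemptide at 30 °C. Compound (top final typically 7.5 μM) preincubated 10 min; initial rates over 10 min; IC50 and Ki by non-linear regression.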

Ki [1] [nM]	Ki [2] [nM]	SMILES
500 to 5000	500 to 5000	COc1ccc(-c2cnc3c(C#N)c(N)nn3c2)cc1 [Compound V-2]
500 to 5000	500 to 5000	COc1ccncc1-c1cnc2c(-c3ccccn3)c(N)nn2c1 [Compound V-22]
500 to 5000	500 to 5000	CCOC(=O)c1c(N)nn2cc(-c3ccc(Cl)cc3)cnc12 [Compound V-24]
500 to 5000	500 to 5000	CCN(C(=O)c1c(N)nn2cc(-c3ccncn3)cnc12)C(C)C [Compound V-33]
< 500	500 to 5000	CC(C)N1CCN(c2ccc(-c3cnc4c(-c5ccccn5)c(N)nn4c3)cc2)CC1 [Compound V-51]
500 to 5000	500 to 5000	CN(C)CCNC(=O)c1cccc(-c2cnc3c(-c4ccccn4)c(N)nn3c2)c1 [Compound V-54]
500 to 5000	500 to 5000	CN1CCN(C(=O)c2cccc(-c3cnc4c(-c5ccccn5)c(N)nn4c3)c2)CC1 [Compound V-55]
500 to 5000	500 to 5000	Nc1nn2cc(N3CCOCC3)cnc2c1-c1ccccn1 [Compound V-57]
< 500	500 to 5000	CCN(CCN)C(=O)c1ccc(-c2cnc3c(-c4ccccn4)c(N)nn3c2)nc1 [Compound V-62]
< 500	< 500	CCN1CCN(C(=O)c2ccc(-c3cnc4c(-c5ccccn5)c(N)nn4c3)nc2)CC1 [Compound V-63]
< 500	< 500	COC(=O)N1CCN(C(=O)c2ccc(-c3cnc4c(-c5ccccn5)c(N)nn4c3)nc2)CC1 [Compound V-64]
< 500	500 to 5000	CN(C)CCNC(=O)c1ccc(-c2cnc3c(-c4ccccn4)c(N)nn3c2)nc1 [Compound V-65]
500 to 5000	< 500	CC(C)N(C)C(=O)c1ccc(-c2cnc3c(-c4ccccn4)c(N)nn3c2)nc1 [Compound V-67]
< 500	< 500	COCCN1CCN(C(=O)c2ccc(-c3cnc4c(-c5ccccn5)c(N)nn4c3)nc2)CC1 [Compound V-68]
< 500	< 500	CN1CCCN(C(=O)c2ccc(-c3cnc4c(-c5ccccn5)c(N)nn4c3)nc2)CC1 [Compound V-70]
< 500	< 500	Nc1nn2cc(-c3ccc(C(=O)N4CCCC(CO)C4)cn3)cnc2c1-c1ccccn1 (stereo not shown) [Compound V-71]
< 500	< 500	C#CCN(C)C(=O)c1ccc(-c2cnc3c(-c4ccccn4)c(N)nn3c2)nc1 [Compound V-72]
500 to 5000	500 to 5000	Nc1nn2cc(-c3ccc(C(=O)NCCF)cn3)cnc2c1-c1ccccn1 [Compound V-73]
< 500	500 to 5000	CCN(CCCCN)C(=O)c1ccc(-c2cnc3c(-c4ccccn4)c(N)nn3c2)nc1 [Compound V-74]
500 to 5000	< 500	COCCN(C)C(=O)c1ccc(-c2cnc3c(-c4ccccn4)c(N)nn3c2)nc1 [Compound V-75]
< 500	< 500	CCOC(=O)N1CCN(C(=O)c2ccc(-c3cnc4c(-c5ccccn5)c(N)nn4c3)nc2)CC1 [Compound V-76]
< 500	< 500	CCN1CCN(C(=O)c2ccc(-c3cnc4c(-c5ccccn5)c(N)nn4c3)nc2)C(O)C1 (stereo not shown) [Compound V-78]
< 500	< 500	Nc1nn2cc(-c3ccc(C(=O)N4CCC[C@@H](O)C4)cn3)cnc2c1-c1ccccn1 [Compound V-79]
< 500	< 500	Nc1nn2cc(-c3ccc(C(=O)N4CCC(N)C4)cn3)cnc2c1-c1ccccn1 (stereo not shown) [Compound V-81]
< 500	500 to 5000	Nc1nn2cc(-c3ccc(C(=O)N4CCCCC4CCO)cn3)cnc2c1-c1ccccn1 (stereo not shown) [Compound V-82]

Ki [1] [nM]	Ki [2] [nM]	SMILES
< 500	< 500	Nc1nn2cc(-c3ccc(C(=O)N4CCC(CCO)CC4)cn3)cnc2c1-c1ccccn1 [Compound V-83]
< 500	500 to 5000	CCCN(CCCN)C(=O)c1ccc(-c2cnc3c(-c4ccccn4)c(N)nn3c2)nc1 [Compound V-85]
500 to 5000	500 to 5000	Nc1nn2cc(-c3ccc(C(=O)N4CCC4)cn3)cnc2c1-c1ccccn1 [Compound V-86]
< 500	< 500	Nc1nn2cc(-c3ccc(C(=O)N4CCSCC4)cn3)cnc2c1-c1ccccn1 [Compound V-87]
< 500	< 500	CCN(C)C(=O)c1ccc(-c2cnc3c(-c4ccccn4)c(N)nn3c2)nc1 [Compound V-89]
< 500	< 500	CCN(CCC#N)C(=O)c1ccc(-c2cnc3c(-c4ccccn4)c(N)nn3c2)nc1 [Compound V-90]
< 500	< 500	CCCN(CCO)C(=O)c1ccc(-c2cnc3c(-c4ccccn4)c(N)nn3c2)nc1 [Compound V-92]
< 500	< 500	Nc1nn2cc(-c3ccc(C(=O)N4CCC[C@@H]4CO)cn3)cnc2c1-c1ccccn1 [Compound V-93]
< 500	500 to 5000	CN(CCN)C(=O)c1ccc(-c2cnc3c(-c4ccccn4)c(N)nn3c2)nc1 [Compound V-94]
500 to 5000	500 to 5000	Cc1cnc2c(-c3cc(NC(C)C)ncn3)c(N)nn2c1 [Compound V-273]
< 500	500 to 5000	COc1ccccc1Nc1cc(-c2c(N)nn3cc(C)cnc23)ncn1 [Compound V-274]
< 500	500 to 5000	Cc1cnc2c(-c3cc(N4CCCCC4)ncn3)c(N)nn2c1 [Compound V-276]
500 to 5000	500 to 5000	Cc1cnc2c(-c3cc(NCC4CC4)ncn3)c(N)nn2c1 [Compound V-277]
500 to 5000	500 to 5000	Cc1cnc2c(-c3cc(NCC4CCCO4)ncn3)c(N)nn2c1 (stereo not shown) [Compound V-278]
< 500	< 500	Cc1cnc2c(-c3cc(Nc4ccccc4)ncn3)c(N)nn2c1 [Compound V-279]
500 to 5000	< 500	Nc1nn2cc(Cl)cnc2c1-c1ccccn1 [Compound V-280]
500 to 5000	500 to 5000	CSc1cc(-c2c(N)nn3cc(C)cnc23)ncn1 [Compound V-281]
500 to 5000	500 to 5000	Cc1cnc2c(-c3cc(NC4CCN(Cc5ccccc5)CC4)ncn3)c(N)nn2c1 [Compound V-285]
500 to 5000	500 to 5000	Cc1cnc2c(-c3cc(NC4CCN(Cc5ccccc5)C4)ncn3)c(N)nn2c1 (stereo not shown) [Compound V-286]
500 to 5000	500 to 5000	Cc1cnc2c(-c3cc(NC4CC4)ncn3)c(N)nn2c1 [Compound V-289]
500 to 5000	500 to 5000	Cc1cnc2c(-c3cc(NC4CCC4)ncn3)c(N)nn2c1 [Compound V-290]
500 to 5000	500 to 5000	Cc1cnc2c(-c3cc(NC4CCCCC4)ncn3)c(N)nn2c1 [Compound V-291]
500 to 5000	500 to 5000	Cc1cnc2c(-c3cc(N[C@H](C)CO)ncn3)c(N)nn2c1 [Compound V-293]
500 to 5000	500 to 5000	CC[C@H](C)Nc1cc(-c2c(N)nn3cc(C)cnc23)ncn1 [Compound V-294]
500 to 5000	500 to 5000	Cc1cnc2c(-c3cc(N[C@@H](C)CO)ncn3)c(N)nn2c1 [Compound V-295]
